Assay results from the supplement of paper PMC11997997.

What was measured:
[1] = system: murine bone marrow-derived macrophages; assay: area under cytotoxicity dose-response curve (AUC (% cytotoxicity x dose, relative)); higher = more cytotoxic; conditions: duration: 6 days; dose range: 0.13-80 uM, 8 points
How it was run: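 An 8-point, 2.5-fold dilution series (final 80–0.13 μM) was applied for 6 days at 37 °C in 5% CO2 to primary murine bone marrow-derived macrophages plated in opaque 384-well plates. Promega's CellTiter-Glo luminescence assay measured viability, and percent cytotoxicity was normalised against vehicle and positive control wells. The area under the dose–response curve, worked out in GraphPad Prism version 10, is the reported cytotoxicity measure.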

[2] = system: Mycobacterium tuberculosis CDC1551 (intracellular, in murine BMDM); assay: area under intracellular growth-inhibition dose-response curve (AUC (% inhibition x dose, relative)); higher = more potent; conditions: duration: 6 days; dose range: 0.13-80 uM, 8 points
How it was run: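 Each value is an area under the growth-inhibition dose–response curve, calculated with GraphPad Prism. Infected primary murine bone marrow-derived macrophages, carrying luciferase-expressing M. tuberculosis CDC1551 at multiplicity of infection 1, were treated for 6 days with an 8-dose, 2.5-fold series (final 80–0.13 μM) in 384-well opaque plates. Readout was by Bright-Glo luciferin assay, normalised to a reference drug control and the lowest-concentration wells.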

Row | SMILES | area under cytotoxicity dose-response curve [1] | area under intracellular growth-inhibition dose-response curve [2]
1 | Cn1c(NC(=S)Nc2ccccc2)nc2ccccc21 | 55.9 | 206
2 | CCOc1ccc(-c2cc(C)[n+](CCc3ccc(OC)c(OC)c3)c(-c3ccc(OCC)cc3)c2)cc1.[O-][Cl+3]([O-])([O-])[O-] | 102 | 60.7
3 | CCCc1cc(C(=O)NCc2cccs2)no1 | < 0 | 192
4 | Cc1[nH]c2ccccc2c1/C=N/NC(N)=S | 102 | 131
5 | O=C(NC(CO)C(O)c1ccc([N+](=O)[O-])cc1)C(Cl)Cl (centres undefined) | 21.4 | 113
6 | O=C(NNC(=O)C1CCCC1)c1cc([N+](=O)[O-])cc([N+](=O)[O-])c1 | 12.3 | 109
7 | C/C(=N\Cc1ccc2c(c1)OCO2)C1=C(O)c2ccccc2C1=O | < 0 | 214
8 | COc1ccc(-c2c(C)cc3oc(=O)cc(-c4ccccc4)c3c2C)cc1 | 33.9 | 154
9 | COc1ccc(C/C(C)=N/NC(=O)c2ccncc2)cc1 | 40.9 | 261
10 | CC1CCC(NC(=O)c2ccc3c(c2)OCO3)CC1 (centres undefined) | < 0 | 218
11 | NC1=NC(=O)/C(=C/c2ccc(Cl)cc2Cl)S1 | < 0 | 129
12 | O=C1/C(=C/c2cccs2)CCC1C1CCCC1 (centres undefined) | < 0 | 132
13 | O=C(NCCc1c[nH]c2ccccc12)c1cc([N+](=O)[O-])cc([N+](=O)[O-])c1 | < 0 | 257
14 | Cc1ccccc1C(=O)N1CCN(c2ccc(NC(=S)NC(=O)c3ccco3)cc2)CC1 | 63.6 | 185
15 | COc1cc(-c2cc(C(=O)Nc3ccncc3)c3ccccc3n2)cc(OC)c1OC | 0.318 | 32.8
16 | CCCCn1c(N)c(N(CCOC)C(=O)c2oc3ccc(Br)cc3c2C)c(=O)[nH]c1=O | 7.25 | 207
17 | O=C(COC(=O)c1ccccc1NCCO)NCC1CCCCC1 | 58.4 | 151
18 | O=C(COC(=O)CCCOc1ccc(Cl)cc1Cl)NCc1ccc(F)cc1 | 40.6 | 9.47
19 | CCn1nc(C(=O)Nc2cccc(S(=O)(=O)N3CCCC3)c2)c2ccccc2c1=O | 101 | 55.2
20 | O=C(NCC1CCCCC1)c1ccc([N+](=O)[O-])cc1 | 77.6 | 239
21 | COc1ccc(C(=O)COC(=O)CNC(=O)c2ccc(C)s2)c(OC)c1 | < 0 | 29.9

Row | SMILES | area under cytotoxicity dose-response curve [1] | area under intracellular growth-inhibition dose-response curve [2]
22 | CNC(=S)Nc1ccc(-c2nc3ccc(C)cc3s2)cc1 | 5.79 | 262
23 | Cc1ccc(C(=O)OCC(=O)NC2CCCC(C)C2C)cc1S(=O)(=O)N1CCCCC1 (centres undefined) | < 0 | 136
24 | Cn1c(=O)n(C)c2cc(/C=N/NC(N)=S)ccc21 | < 0 | 262
25 | C[C@@H](CN1CCC[C@H]1CN1C(N)=NC[C@@H]1Cc1ccccc1)N1C[C@@H](Cc2ccccc2)N(CCCC2CCCC2)C1=N | 22.1 | 98
26 | COc1cccc2c1C(=O)c1c(O)c3c(c(O)c1C2=O)C[C@@](O)(C(=O)CO)C[C@@H]3O[C@H]1C[C@H](N)[C@H](O)[C@H](C)O1.Cl | 147 | 117
27 | C[C@H]1c2cccc(O)c2C(=O)C2C(=O)C3(O)C(=O)C(C(N)=O)C(=O)[C@@H](N(C)C)[C@@H]3[C@@H](O)[C@@H]21.Cl (some centres undefined) | 33.4 | 259
28 | COc1cc(/C=N/NC(=O)c2ccncc2)ccc1OCc1cnc(Cl)s1 | 3.56 | 219
29 | O=C(COc1ccccc1)NCc1cccs1 | 14.2 | 130
30 | CNc1ncnc2c1ncn2[C@@H]1O[C@H](CO)[C@@H](O)[C@H]1O | 32.7 | 39.4
31 | Cc1nc(N/N=C\c2ccc3c(c2)OCO3)sc1C | 150 | 252
32 | O=[N+]([O-])c1[c][c]c(Sc2[c][c][c][c][n+]2[O-])c2nonc12 | 119 | 48.7
33 | CCOC(=O)c1c(C)nc2ccc(C)cn12 | 24.3 | 155
34 | Cc1cccc(OCC(=O)NCc2ccccc2)c1 | < 0 | 210
35 | O=C(NC1C2CC3CC(C2)CC1C3)c1ccc2c(c1)OCO2 (centres undefined) | 123 | 226
36 | COc1ccc(/C=N/NC(N)=S)cc1OC(=O)c1ccccc1 | 106 | 241
37 | Cc1ccnc2c1ccc1cccnc12 | 208 | 149
38 | CC1CCCN(c2ccc([N+](=O)[O-])s2)C1 (centres undefined) | < 0 | 241
39 | COc1cc(/C=N\NC(=O)c2sc(N)nc2C)cc(OC)c1OC | 140 | 35.1
40 | NC(=S)N/N=C/c1cccc(Br)c1 | 35 | 270
41 | O=C(Nc1ccc(C(=O)Oc2ccccc2)c(O)c1)c1ccco1 | 4.02 | 223
42 | C/C(=N\NC(=O)c1ccncc1)c1ccc(N2CCOCC2)cc1 | 16.1 | 255

Row | SMILES | area under cytotoxicity dose-response curve [1] | area under intracellular growth-inhibition dose-response curve [2]
43 | C/C(=N\NC(=O)c1ccncc1)c1cccc(NC(=O)c2ccc(C(C)(C)C)cc2)c1 | 47.8 | 264
44 | COc1ccc(CCNC(=O)c2c(C)nc3ccccn23)cc1 | < 0 | 198
45 | CCn1c(C)cs/c1=N/C(=O)c1ccccc1 | 25.7 | 197
46 | C=CCn1c(SCC(=O)NC(=O)Cc2ccccc2)nc2ccccc2c1=O | < 0 | 158
47 | COc1ccc(CCNC(=O)c2ccc(Cl)cc2)cc1 | < 0 | 241
48 | Cc1ccc(-c2nn(-c3ccccc3)cc2/C=N/NC(=O)c2ccncc2)o1 | 48.7 | 261
49 | CC1CCC(C(C)C)C(OC(=O)C[n+]2c(-c3ccccc3)n(C)c3ccccc32)C1.[Cl-] (centres undefined) | 56.7 | 202
50 | CCN(CC)CCNc1nc(-c2ccc(OC)cc2)c(-c2ccc(OC)cc2)s1 | 3.78 | 203
51 | Cc1ccc(Cn2cc(-c3ccccc3)nn2)cc1 | 11.2 | 191
52 | CC(C)(C)C(=O)N1CCN(c2ccc(NC(=O)c3ccc([N+](=O)[O-])o3)cc2)CC1 | 104 | 105
53 | Cc1cc(/C=N/NC(N)=S)c(C)n1-c1ccc(Br)cc1 | < 0 | 257
54 | CSc1ccc(NC(N)=S)cc1 | 35.6 | 248
55 | O=C(NCc1ccncc1)c1cccc(S(=O)(=O)N2CCc3ccccc32)c1 | 39.9 | < 0
56 | O=C(CNC(=O)c1ccc([N+](=O)[O-])cc1)N/N=C\c1ccc(OC(=O)c2ccccc2)cc1 | < 0 | 109
57 | CCN(CC)C(=O)CSc1nnc2nnc3cc(Cl)ccc3n12 | 55.1 | 219
58 | Cc1ccc(S(=O)(=O)N2CCOCC2)cc1C(=O)OCC(=O)NC1CC1 | 7.09 | 97.3
59 | CCOc1ncccc1C(=O)Nc1cc2c(cc1Br)OCCO2 | 24.1 | 132
60 | CC(=O)c1c(C)[n+]([O-])c2cc(C)ccc2[n+]1[O-] | 31.7 | 95.3
61 | CC(=O)NC(=S)Nc1ccc(NC(=O)COc2ccc(Cl)cc2Cl)cc1 | 38.6 | 220
62 | O=C(NCC1CCCCC1)c1ccc(Br)o1 | < 0 | 274
